Measurements: patent EP4653437A2 (Innovo Therapeutics Inc., priority 2023, dated 2024)

Columns and labels:
A549 cells = experiment: Measurement of PGE2-increasing activity in A549 cells (IL-1β stimulated, PGE2 quantified in supernatant); type: cell-based; details: Homo sapiens, 24 h; concentration of 1 µM of each compound; IL-1β treated A549 cells; read-out: Increased PGE2 production in A549 cells
Outline: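 A549 cells grown 24 h in F12K with 10% FBS, then switched to serum-free medium with or without IL-1β and compound (0.1% DMSO final). After 24 h at 37 °C, 5% CO2, supernatant PGE2 quantified by immunoassay.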

human 15-PGDH = biological target: T1, human 15-PGDH (Homo sapiens, UniProt P15428); experiment: Evaluation of 15-PGDH inhibitory activity (fluorescence enzyme assay, NAD+/PGE2); type: biochemical; details: human 15-PGDH enzyme, fluorescence Vmax
T1 construct: purchased R&D System 5660-DH
T1 sequence (P15428 1-266): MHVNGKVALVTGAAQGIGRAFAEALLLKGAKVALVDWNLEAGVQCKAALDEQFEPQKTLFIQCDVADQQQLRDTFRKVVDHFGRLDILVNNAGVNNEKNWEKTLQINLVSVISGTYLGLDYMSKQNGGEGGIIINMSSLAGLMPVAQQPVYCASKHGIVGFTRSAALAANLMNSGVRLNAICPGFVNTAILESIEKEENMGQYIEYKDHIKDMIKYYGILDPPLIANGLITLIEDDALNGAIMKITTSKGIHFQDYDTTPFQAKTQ
Procedure: 15-PGDH inhibition activity of Example compounds was measured as follows. 6.7 ng of human 15-PGDH (R&D System# 5660-DH) enzyme (10 µL) was added to a black 96 well plate, 60 µL of buffer (50 mM Tris-HCl, pH 7.5, 0.01% Tween 20) was added, and 10 µL of 200 µM β-Nicotinamide adenine dinucleotide sodium salt (Sigma, Cat# N0632-5G) was added. 10 µL of (10x) compound solution in DMSO was added and reacted for 10 minutes at room temperature.

| IC50 (human 15-PGDH) [nM] | Compound | fold induction at 1 µM (A549 cells) |
| --- | --- | --- |
| ≤ 100 | O=C(c1cnn2c(-c3ccccc3Cl)cccc12)N1CCCCC1 [Example 264, (7-(2-chlorophenyl)pyrazolo[1,5-a]pyridin-3-yl)(piperidin-1-yl)methanone] | > 1.5 |
| ≤ 100 | Nc1n[nH]c2ccc(-c3cccc4c(C(=O)N5CCCCC5)cnn34)cc12 [Example 260, [7-(3-amino-1H-indazol-5-yl)pyrazolo[1,5-a]pyridin-3-yl]-(1-piperidyl)methanone] | > 1.5 |
| ≤ 100 | O=C(c1cnn2c(-c3ccc(Cl)nc3F)cccc12)N1CCCCC1 [Example 315, (7-(6-chloro-2-fluoropyridin-3-yl)pyrazolo[1,5-a]pyridin-3-yl)(piperidin-1-yl)methanone] | > 1.5 |
| ≤ 100 | Cn1cnc2ncc(-c3cccc4c(C(=O)N5CCCCC5)cnn34)cc2c1=O [Example 255, 3-methyl-6-(3-(piperidine-1-carbonyl)pyrazolo[1,5-a]pyridin-7-yl)pyrido[2,3-d]pyrimidin-4(3H)-one] | > 1.5 |
| ≤ 100 | O=C(O)c1ncc(-c2cccc3c(C(=O)N4CCCCC4)cnn23)cc1Cl [Example 258, 3-chloro-5-[3-(piperidine-1-carbonyl)pyrazolo[1,5-a]pyridin-7-yl]pyridine-2-carboxylic acid] | < 1.5 |
| ≤ 100 | N#Cc1cccc(-c2cccc3c(C(=O)N4CCCCC4)cnn23)c1 [Example 6, 3-(3-(piperidine-1-carbonyl)pyrazolo[1,5-a]pyridin-7-yl)benzonitrile] | > 1.5 |
| ≤ 100 | N#Cc1cc(F)cc(-c2cccc3c(C(=O)N4CCCCC4)cnn23)c1 [Example 291, 3-fluoro-5-(3-(piperidine-1-carbonyl)pyrazolo[1,5-a]pyridin-7-yl)benzonitrile] | > 1.5 |
| ≤ 100 | O=C(c1cnn2c(-c3cc(F)nc(F)c3)cccc12)N1CCCCC1 [Example 273, (7-(2,6-difluoropyridin-4-yl)pyrazolo[1,5-a]pyridin-3-yl)(piperidin-1-yl)methanone] | > 1.5 |
| ≤ 100 | CC1c2cc(-c3cccc4c(C(=O)N5CCCCC5)cnn34)cnc2C(=O)N1C (centres unmarked) [Example 280, 5,6-dimethyl-3-(3-(piperidine-1-carbonyl)pyrazolo[1,5-a]pyridin-7-yl)-5,6-dihydro-7H-pyrrolo[3,4-b]pyridin-7-one] | > 1.5 |
| ≤ 100 | Nc1cncc(-c2cccc3c(C(=O)N4CCCCC4)cnn23)c1 [Example 9, (7-(5-aminopyridin-3-yl)pyrazolo[1,5-a]pyridin-3-yl)(piperidin-1-yl)methanone] | > 1.5 |

The next lines start with the compound.

| Compound | IC50 (human 15-PGDH) [nM] | fold induction at 1 µM (A549 cells) |
| --- | --- | --- |
| CN1CCC(C(=O)Nc2cccc(-c3cccc4c(C(=O)N5CCCCC5)cnn34)c2)CC1 [Example 93, 1-methyl-N-(3-(3-(piperidine-1-carbonyl)pyrazolo[1,5-a]pyridin-7-yl)phenyl)piperidine-4-carboxamide] | ≤ 100 | > 1.5 |
| CC1CCCN(C(=O)c2cnn3c(-c4ccc5c(c4)C(=O)NC5)cccc23)C1 (centres unmarked) [Example 387, 6-(3-(3-methylpiperidine-1-carbonyl)pyrazolo[1,5-a]pyridin-7-yl)isoindolin-1-one] | ≤ 100 | > 1.5 |
| Cc1nc(-c2ncc(-c3cccc4c(C(=O)N5CCCCC5)cnn34)cn2)no1 [Example 317, [7-[2-(5-methyl-1,2,4-oxadiazol-3-yl)pyrimidin-5-yl]pyrazolo[1,5-a]pyridin-3-yl]-(1-piperidyl)methanone] | ≤ 100 | > 1.5 |
| O=C(Nc1ccc(-c2cccc3c(C(=O)N4CCCCC4)cnn23)cn1)c1cccnc1 [Example 287, N-(5-(3-(piperidine-1-carbonyl)pyrazolo[1,5-a]pyridin-7-yl)pyridin-2-yl)nicotinamide] | ≤ 100 | > 1.5 |
| O=C(Cc1cccnc1)Nc1c(F)cc(-c2cccc3c(C(=O)N4CCCCC4)cnn23)cc1F [Example 278, N-(2,6-difluoro-4-(3-(piperidine-1-carbonyl)pyrazolo[1,5-a]pyridin-7-yl)phenyl)-2-(pyridin-3-yl)acetamide] | ≤ 100 | > 1.5 |
| O=C(c1cnn2c(-c3ccc(N4CCCCC4)nc3)cccc12)N1CCCCC1 [Example 110, piperidin-1-yl(7-(6-(piperidin-1-yl)pyridin-3-yl)pyrazolo[1,5-a]pyridin-3-yl)methanone] | ≤ 100 | < 1.5 |
| Cc1noc(C)c1-c1cc(-c2cccc3c(C(=O)N4CCCCC4)cnn23)cc(N2CCOC2=O)n1 [Example 368, 3-(6-(3,5-dimethylisoxazol-4-yl)-4-(3-(piperidine-1-carbonyl)pyrazolo[1,5-a]pyridin-7-yl)pyridin-2-yl)oxazolidin-2-one] | ≤ 100 | > 1.5 |
| O=C(c1cnn2c(-c3cc(Br)cnc3N3CC(CO)C3)cccc12)N1CCCCC1 [Example 363, (7-(5-bromo-2-(3-(hydroxymethyl)azetidin-1-yl)pyridin-3-yl)pyrazolo[1,5-a]pyridin-3-yl)(piperidin-1-yl)methanone] | ≤ 100 | < 1.5 |
| O=C(c1cnn2c(-c3ccc(N4CC(F)(F)C4)nc3)cccc12)N1CCCCC1 [Example 209, (7-(6-(3,3-difluoroazetidin-1-yl)pyridin-3-yl)pyrazolo[1,5-a]pyridin-3-yl)(piperidin-1-yl)methanone] | ≤ 100 | > 1.5 |
| O=C(NCC1CC1)c1ccc(-c2cccc3c(C(=O)N4CCCCC4)cnn23)cc1 [Example 64, N-(cyclopropylmethyl)-4-(3-(piperidine-1-carbonyl)pyrazolo[1,5-a]pyridin-7-yl)benzamide] | ≤ 100 | > 1.5 |
| O=C(Cc1cncc(F)c1)Nc1ccc(-c2cccc3c(C(=O)N4CCCCC4)cnn23)cn1 [Example 409, 2-(5-fluoropyridin-3-yl)-N-(5-(3-(piperidine-1-carbonyl)pyrazolo[1,5-a]pyridin-7-yl)pyridin-2-yl)acetamide] | ≤ 100 | > 1.5 |
| CC(C)NC(=O)c1cccc(-c2cccc3c(C(=O)N4CCCCC4)cnn23)c1 [Example 28, N-isopropyl-3-(3-(piperidine-1-carbonyl)pyrazolo[1,5-a]pyridin-7-yl)benzamide] | ≤ 100 | > 1.5 |
| Cn1nccc1-c1cnc(F)c(-c2cccc3c(C(=O)N4CCCCC4)cnn23)c1 [Example 325, (7-(2-fluoro-5-(1-methyl-1H-pyrazol-5-yl)pyridin-3-yl)pyrazolo[1,5-a]pyridin-3-yl)(piperidin-1-yl)methanone] | ≤ 100 | > 1.5 |
| O=C(Cc1cncnc1)Nc1ccc(-c2cccc3c(C(=O)N4CCCCC4)cnn23)cn1 [Example 407, N-[5-[3-(piperidine-1-carbonyl)pyrazolo[1,5-a]pyridin-7-yl]-2-pyridyl]-2-pyrimidin-5-yl-acetamide] | ≤ 100 | > 1.5 |
| O=C(Nc1cncc(-c2cccc3c(C(=O)N4CCCCC4)cnn23)c1)c1cncc(F)c1 [Example 335, 5-fluoro-N-(5-(3-(piperidine-1-carbonyl)pyrazolo[1,5-a]pyridin-7-yl)pyridin-3-yl)nicotinamide] | ≤ 100 | > 1.5 |
| N#Cc1cc(-c2cccc3c(C(=O)N4CCCCC4)cnn23)cc([N+](=O)[O-])c1 [Example 312, 3-nitro-5-(3-(piperidine-1-carbonyl)pyrazolo[1,5-a]pyridin-7-yl)benzonitrile] | ≤ 100 | > 1.5 |
| O=C(c1cnn2c(-c3ccc(NCCc4cccnc4)nc3)cccc12)N1CCCCC1 [Example 332, piperidin-1-yl(7-(6-((2-(pyridin-3-yl)ethyl)amino)pyridin-3-yl)pyrazolo[1,5-a]pyridin-3-yl)methanone] | ≤ 100 | > 1.5 |
| O=C1NCc2ccc(-c3cccc4c(C(=O)N5CCCCC5)cnn34)cc21 [Example 140, 6-(3-(piperidine-1-carbonyl)pyrazolo[1,5-a]pyridin-7-yl)isoindolin-1-one] | ≤ 100 | > 1.5 |
| Cc1noc(C)c1-c1cc(-c2cccc3c(C(=O)N4CCCCC4)cnn23)cc(N2CCOCC2)n1 [Example 371, (7-(2-(3,5-dimethylisoxazol-4-yl)-6-morpholinopyridin-4-yl)pyrazolo[1,5-a]pyridin-3-yl)(piperidin-1-yl)methanone] | ≤ 100 | > 1.5 |
| CCC1CCCN(C(=O)c2cnn3c(-c4ccc(F)nc4)cccc23)C1 (centres unmarked) [Example 337, (3-ethylpiperidin-1-yl)(7-(6-fluoropyridin-3-yl)pyrazolo[1,5-a]pyridin-3-yl)methanone] | ≤ 100 | > 1.5 |
| O=C(COc1ccc(Cl)cc1)Nc1ccc(-c2cccc3c(C(=O)N4CCCCC4)cnn23)cn1 [Example 410, 2-(4-chlorophenoxy)-N-[5-[3-(piperidine-1-carbonyl)pyrazolo[1,5-a]pyridin-7-yl]-2-pyridyl]acetamide] | ≤ 100 | > 1.5 |
